According to ChEMBL document CHEMBL1201862, “PubChem BioAssay data set” (2004):
Activity calls are given as the source filed them.

Assays:
[1] = target: T1, Polyadenylate-binding protein 1 (Homo sapiens, UniProt P11940); test: PABP1 MLLE–PAM2 binding inhibitor potency, dose response, biochemical, fluorescence polarization, FITC-PAM2 peptide (AID 602259); format: functional; details: read-out: IC50_Mean
[2] = target: T2, Sentrin-specific protease 7 (Homo sapiens, UniProt Q9BQF6); format: functional;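 further: Luminescence-based dose-response confirmation of ultra-high-throughput screening hits, measuring inhibition of SENP7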
T2 sequence (Q9BQF6 whole entry): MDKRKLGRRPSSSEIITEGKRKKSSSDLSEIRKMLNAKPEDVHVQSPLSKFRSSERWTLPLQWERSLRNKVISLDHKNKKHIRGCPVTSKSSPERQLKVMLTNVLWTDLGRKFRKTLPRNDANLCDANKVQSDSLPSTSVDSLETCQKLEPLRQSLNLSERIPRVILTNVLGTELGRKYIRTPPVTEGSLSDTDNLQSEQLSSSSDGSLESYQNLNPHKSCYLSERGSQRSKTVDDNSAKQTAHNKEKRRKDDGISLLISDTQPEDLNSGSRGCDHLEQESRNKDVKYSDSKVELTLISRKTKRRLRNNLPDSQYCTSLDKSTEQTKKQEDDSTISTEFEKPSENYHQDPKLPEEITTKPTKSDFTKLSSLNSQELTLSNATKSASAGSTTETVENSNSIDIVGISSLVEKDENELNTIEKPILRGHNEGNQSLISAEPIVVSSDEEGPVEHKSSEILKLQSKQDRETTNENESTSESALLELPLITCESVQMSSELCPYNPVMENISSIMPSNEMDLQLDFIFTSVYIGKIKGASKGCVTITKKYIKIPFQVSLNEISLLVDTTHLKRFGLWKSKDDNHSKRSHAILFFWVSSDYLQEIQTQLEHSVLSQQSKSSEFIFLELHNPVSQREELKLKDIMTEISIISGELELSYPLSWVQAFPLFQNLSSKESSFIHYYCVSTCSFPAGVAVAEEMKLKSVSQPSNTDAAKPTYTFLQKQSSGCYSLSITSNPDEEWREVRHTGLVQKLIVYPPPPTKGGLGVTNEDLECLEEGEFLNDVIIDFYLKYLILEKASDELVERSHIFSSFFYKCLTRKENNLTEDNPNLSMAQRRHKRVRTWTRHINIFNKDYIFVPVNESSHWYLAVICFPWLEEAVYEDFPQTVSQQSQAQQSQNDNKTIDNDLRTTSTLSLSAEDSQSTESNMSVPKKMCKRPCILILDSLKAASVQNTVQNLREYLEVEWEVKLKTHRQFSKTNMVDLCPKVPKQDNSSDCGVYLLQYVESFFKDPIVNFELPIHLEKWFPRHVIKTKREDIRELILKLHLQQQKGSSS

[3] = target: T3, Sentrin-specific protease 6 (Homo sapiens, UniProt Q9GZR1); format: functional;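 further: Luminescence-based dose-response confirmatory assay of SENP6 inhibition, following up an ultra-high-throughput screen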
T3 sequence (Q9GZR1 whole entry): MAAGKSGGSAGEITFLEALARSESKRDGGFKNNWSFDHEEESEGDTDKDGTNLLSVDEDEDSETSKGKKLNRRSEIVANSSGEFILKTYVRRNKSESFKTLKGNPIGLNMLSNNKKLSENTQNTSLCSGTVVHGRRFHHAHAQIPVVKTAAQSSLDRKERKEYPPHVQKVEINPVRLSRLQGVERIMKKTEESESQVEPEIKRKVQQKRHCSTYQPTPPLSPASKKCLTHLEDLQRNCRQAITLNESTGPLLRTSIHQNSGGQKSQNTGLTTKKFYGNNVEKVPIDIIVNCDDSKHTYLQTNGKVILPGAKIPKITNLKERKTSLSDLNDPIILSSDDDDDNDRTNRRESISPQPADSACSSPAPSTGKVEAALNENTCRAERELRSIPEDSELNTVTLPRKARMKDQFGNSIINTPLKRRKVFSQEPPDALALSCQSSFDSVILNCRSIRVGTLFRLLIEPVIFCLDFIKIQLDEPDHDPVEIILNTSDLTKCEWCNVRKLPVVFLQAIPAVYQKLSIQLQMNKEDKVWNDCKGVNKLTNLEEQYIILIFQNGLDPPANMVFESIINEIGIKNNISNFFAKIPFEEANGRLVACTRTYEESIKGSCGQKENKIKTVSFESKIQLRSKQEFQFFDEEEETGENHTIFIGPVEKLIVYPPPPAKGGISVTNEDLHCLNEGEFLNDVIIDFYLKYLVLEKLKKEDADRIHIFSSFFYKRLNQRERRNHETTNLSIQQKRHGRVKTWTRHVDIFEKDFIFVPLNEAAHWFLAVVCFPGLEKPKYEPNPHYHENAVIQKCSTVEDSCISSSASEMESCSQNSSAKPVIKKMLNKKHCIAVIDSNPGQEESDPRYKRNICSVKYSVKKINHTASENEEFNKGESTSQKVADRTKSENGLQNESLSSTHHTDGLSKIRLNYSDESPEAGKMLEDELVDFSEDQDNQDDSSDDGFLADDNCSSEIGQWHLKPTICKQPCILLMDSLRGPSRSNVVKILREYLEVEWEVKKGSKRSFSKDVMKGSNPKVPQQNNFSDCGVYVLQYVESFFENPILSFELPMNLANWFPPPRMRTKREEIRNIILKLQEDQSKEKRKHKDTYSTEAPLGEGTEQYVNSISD

[4] = target: T1, Polyadenylate-binding protein 1; test: PABP1 MLLE–PAM2 interaction inhibitors, dose response, miRNA deadenylation inhibitor project, biochemical, fluorescence polarization, Cy5-PAM2 peptide, secondary (AID 602260); format: functional; details: read-out: IC50_Mean
[5] = target: T4, Caspase-3 (Homo sapiens, UniProt P42574); format: functional;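 further: Dose-response selectivity test against caspase-3 for candidate inhibitors of sentrin-specific proteases (SENPs)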
T4 sequence (P42574 whole entry): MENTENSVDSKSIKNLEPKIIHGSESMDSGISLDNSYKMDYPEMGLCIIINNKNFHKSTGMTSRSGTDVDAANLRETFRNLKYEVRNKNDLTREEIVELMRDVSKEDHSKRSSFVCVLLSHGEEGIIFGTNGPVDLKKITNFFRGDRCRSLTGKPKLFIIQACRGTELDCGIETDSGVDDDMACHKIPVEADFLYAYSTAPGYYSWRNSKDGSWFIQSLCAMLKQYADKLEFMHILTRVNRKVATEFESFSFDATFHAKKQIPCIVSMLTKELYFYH

[6] = target: T5, Sentrin-specific protease 8 (Homo sapiens, UniProt Q96LD8); format: functional;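 further: luminescence read-out of SENP8 inhibition, dose-response confirmation following an ultra-high-throughput screen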
T5 sequence (Q96LD8 whole entry): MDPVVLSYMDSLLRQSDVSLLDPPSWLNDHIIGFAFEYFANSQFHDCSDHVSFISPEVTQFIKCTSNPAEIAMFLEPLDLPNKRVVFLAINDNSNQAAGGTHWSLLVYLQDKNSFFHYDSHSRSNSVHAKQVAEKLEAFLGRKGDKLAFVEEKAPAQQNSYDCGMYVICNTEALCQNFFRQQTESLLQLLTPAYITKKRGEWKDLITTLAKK

[7] = target: T6, Protein skinhead-1 (Caenorhabditis elegans, UniProt P34707); format: functional
T6 sequence (P34707 whole entry): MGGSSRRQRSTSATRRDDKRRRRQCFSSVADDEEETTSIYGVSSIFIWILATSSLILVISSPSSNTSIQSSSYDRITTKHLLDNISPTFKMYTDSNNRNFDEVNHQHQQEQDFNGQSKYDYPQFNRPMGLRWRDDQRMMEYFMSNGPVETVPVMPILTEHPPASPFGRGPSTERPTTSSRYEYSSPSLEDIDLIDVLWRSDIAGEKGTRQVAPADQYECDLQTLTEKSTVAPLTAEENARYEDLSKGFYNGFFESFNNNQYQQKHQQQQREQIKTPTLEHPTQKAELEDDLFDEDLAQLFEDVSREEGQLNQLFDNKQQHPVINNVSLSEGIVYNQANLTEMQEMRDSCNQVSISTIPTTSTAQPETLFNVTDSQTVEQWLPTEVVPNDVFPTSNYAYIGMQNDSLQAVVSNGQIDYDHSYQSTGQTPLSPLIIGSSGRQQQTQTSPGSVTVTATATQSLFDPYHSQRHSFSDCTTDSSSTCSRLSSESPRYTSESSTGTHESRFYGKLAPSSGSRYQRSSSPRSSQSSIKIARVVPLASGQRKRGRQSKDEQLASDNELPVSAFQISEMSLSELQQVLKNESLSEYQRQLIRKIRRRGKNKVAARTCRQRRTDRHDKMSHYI

[8] = target: T7, Endoribonuclease toxin MazF (Escherichia coli K-12, UniProt P0AE70); test: MazF toxin RNase activators, dose response, biochemical, fluorescence, single-stranded RNA substrate, uHTS hits (AID 588481); format: functional
T7 sequence (P0AE70 whole entry): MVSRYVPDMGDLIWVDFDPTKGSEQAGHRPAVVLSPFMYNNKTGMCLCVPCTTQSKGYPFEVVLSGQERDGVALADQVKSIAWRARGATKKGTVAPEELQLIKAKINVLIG

[9] = target: T7, Endoribonuclease toxin MazF; test: fluorescent RNA oligo signal without MazF, dose response, counter-screen for MazEF activator project, biochemical, fluorescence, single-stranded RNase substrate (AID 588502); format: functional
[10] = Luminescence Cell-Based Dose Response HTS to Identify Activators of Luciferase Translation or Activity in H4 […] Cells. [Related pubchem assays: 1829 (Project Summary), 1814 (Primary HTS)]; format: functional
[11] = system: H4; test: Luminescence Cell-Based Dose Response HTS to Identify Activators of 5'UTR Stem-Loop Driven Prion Protein mRNA Translation in H4 Neuroglioblastoma Cells. [Related pubchem assays: 1829 (Project Summary), 1814 (Primary HTS)]; format: functional; details: Homo sapiens
[12] = Luminescence Cell-Based Dose Confirmation HTS to Identify Activators of 5'UTR Stem-Loop Driven Alpha-Synuclein mRNA Translation in H4 Neuroglioblastoma Cells. [Related pubchem assays: 1829 (Project Summary), 1814 (Primary HTS)]; format: functional
[13] = system: Streptococcus; test: Group A Streptococcus viability loss, dose response, counter-screen for streptokinase expression inhibitor project, luminescence, BacTiterGlo (AID 1915); format: functional, organism-based;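 further: potency for reduction of bacterial viability or growth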
[14] = target: T8, Streptokinase A (Streptococcus pyogenes serotype M1, UniProt P10520); test: S. pyogenes streptokinase expression inhibitors, potency, dose response, plasminogen activation absorbance, OD405 (AID 1914); format: functional, Streptococcus pyogenes M1 GAS;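 further: secreted streptokinase activity via plasminogen activation per viability signal from cell pellet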
T8 sequence (P10520 whole entry): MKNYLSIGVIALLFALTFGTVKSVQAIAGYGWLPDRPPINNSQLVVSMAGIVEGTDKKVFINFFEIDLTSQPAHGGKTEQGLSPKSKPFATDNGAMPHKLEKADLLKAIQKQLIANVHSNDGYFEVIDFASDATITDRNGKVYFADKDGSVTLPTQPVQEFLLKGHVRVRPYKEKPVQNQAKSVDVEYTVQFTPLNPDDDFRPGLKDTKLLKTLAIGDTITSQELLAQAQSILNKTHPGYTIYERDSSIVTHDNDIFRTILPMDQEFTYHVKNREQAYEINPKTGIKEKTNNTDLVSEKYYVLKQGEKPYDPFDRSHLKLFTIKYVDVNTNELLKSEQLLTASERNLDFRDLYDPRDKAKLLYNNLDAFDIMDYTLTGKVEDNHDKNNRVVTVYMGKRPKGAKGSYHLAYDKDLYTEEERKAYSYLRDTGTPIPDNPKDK

[15] = system: Streptococcus sp. 'group A'; test: growth inhibition of control SK(-) GAS strain, dose response, counter-screen for streptokinase expression inhibitor project, luminescence, kanamycin, BacTiterGlo, confirmation (AID 1900); format: functional, organism-based
[16] = target: Cytochrome P450 2C9 (Homo sapiens, UniProt P11712)
[17] = system: P388/ADR; test: cells; format: functional; details: Mus musculus
[18] = system: P388; test: cells; format: functional; details: Mus musculus
[19] = system: SN12K1; test: cells; format: functional; details: Homo sapiens

T1 sequence (P11940 whole entry): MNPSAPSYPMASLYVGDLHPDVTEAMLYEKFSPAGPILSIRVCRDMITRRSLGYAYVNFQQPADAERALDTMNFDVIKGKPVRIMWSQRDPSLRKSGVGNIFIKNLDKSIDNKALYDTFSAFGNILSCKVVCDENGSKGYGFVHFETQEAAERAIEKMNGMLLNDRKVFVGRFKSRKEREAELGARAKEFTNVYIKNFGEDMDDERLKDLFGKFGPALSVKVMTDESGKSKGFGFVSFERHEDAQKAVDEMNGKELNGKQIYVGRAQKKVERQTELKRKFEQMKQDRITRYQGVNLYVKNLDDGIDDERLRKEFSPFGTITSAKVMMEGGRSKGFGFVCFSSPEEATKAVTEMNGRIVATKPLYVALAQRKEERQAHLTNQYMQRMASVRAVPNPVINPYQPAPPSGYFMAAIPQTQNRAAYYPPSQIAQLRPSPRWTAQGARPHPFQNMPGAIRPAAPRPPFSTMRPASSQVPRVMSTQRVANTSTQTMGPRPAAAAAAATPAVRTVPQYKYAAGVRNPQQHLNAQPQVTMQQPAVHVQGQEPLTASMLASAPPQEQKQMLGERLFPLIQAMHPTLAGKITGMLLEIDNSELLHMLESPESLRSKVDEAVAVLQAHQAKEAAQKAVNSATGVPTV
Chain of Cytochrome P450 2C9 (P11712 whole entry): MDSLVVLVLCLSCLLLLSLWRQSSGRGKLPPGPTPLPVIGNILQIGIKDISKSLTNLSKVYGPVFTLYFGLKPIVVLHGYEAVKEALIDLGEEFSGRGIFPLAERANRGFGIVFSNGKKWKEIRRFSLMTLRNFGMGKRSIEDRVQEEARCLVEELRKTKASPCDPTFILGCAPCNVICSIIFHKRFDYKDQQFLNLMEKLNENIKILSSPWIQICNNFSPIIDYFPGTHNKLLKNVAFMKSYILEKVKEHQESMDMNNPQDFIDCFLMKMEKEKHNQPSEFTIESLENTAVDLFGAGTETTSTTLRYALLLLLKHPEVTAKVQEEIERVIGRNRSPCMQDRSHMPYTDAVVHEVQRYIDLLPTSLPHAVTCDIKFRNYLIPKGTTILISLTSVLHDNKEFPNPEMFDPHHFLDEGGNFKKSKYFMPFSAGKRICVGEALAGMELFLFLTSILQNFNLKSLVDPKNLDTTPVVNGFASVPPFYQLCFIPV

O=C(c1ccc(F)cc1)n1c(=S)nc2ccccn21
IC50 [1]: > 66 µM (inactive) | IC50 [2]: 18.1 µM (active) | IC50 [3]: 60.4 µM (active) | IC50 [4]: > 66 µM (inactive) | IC50 [5]: 52.2 µM (active) | IC50 [6]: 86.1 µM (active)

CCCOc1ccc(-c2nnc(-c3ccco3)o2)cc1
IC50 [7]: 64 µM (inactive) | IC50 [2]: 11.6 µM (active) | IC50 [3]: 22.4 µM (active) | IC50 [5]: 17.4 µM (active) | IC50 [6]: 25.8 µM (active)

CCN(CCNc1ccc([N+](=O)[O-])c2cccnc12)S(=O)(=O)c1ccccc1
EC50 [8]: > 99 µM (inactive) | EC50 [9]: > 99 µM (inactive)

CCOC(=O)c1sc(NC(=O)c2ccc3nc[nH]c3c2)nc1C
IC50 [2]: 2.47 µM (active) | IC50 [3]: 5.17 µM (active) | IC50 [5]: 7.1 µM (active) | IC50 [6]: 3.4 µM (active)

COc1ccc(CNC(=O)c2cc3c(=O)n4ccccc4nc3n(Cc3cccnc3)c2=N)cc1
EC50 [8]: 55.4 µM (inactive) | EC50 [9]: 47.3 µM (inactive)

O=C1/C(=C/Nc2ccc(O)cc2)c2ccccc2C(=O)N1Cc1ccccc1
EC50 [10]: 39.6 µM (active) | EC50 [11]: 33 µM (active) | EC50 [8]: > 99 µM (inactive) | EC50 [9]: 44.3 µM (inactive) | EC50 [12]: 17.7 µM (active) | EC50 [13]: 14.6 µM (active) | EC50 [14]: 18.6 µM (active) | EC50 [15]: 6.51 µM (active)

Cc1ccc(OCC(=O)Nc2ccc(Cl)cc2)c(-n2nc3ccccc3n2)c1
AC50 [16]: 2 µM (inconclusive) | EC50 [8]: > 99 µM (inactive) | EC50 [9]: > 99 µM (inactive)

COC1=C2C[C@@H](C)C[C@@H](OC)[C@@H](O)[C@H](C)/C=C(\C)[C@@H](OC(N)=O)[C@H](OC)/C=C\C=C(/C)C(=O)NC(=CC1=O)C2=O
GI50 [17]: 0.212 µM (active) | GI50 [18]: 0.015 µM (active) | GI50 [19]: 0.11 µM (active)

COCCCn1c(=O)/c(=C/c2ccccc2OC(F)F)s/c1=C(\C#N)C(=O)NCCOC
EC50 [8]: > 99 µM (inactive) | EC50 [9]: > 99 µM (inactive)

CSc1nc2c(ncn2C2OCC(O)C(O)C2O)c(=O)[nH]1 (centres undefined)
GI50 [17]: > 100 µM (inactive) | GI50 [18]: > 100 µM (inactive) | GI50 [19]: > 100 µM (inactive)

CCCCCn1cc2c3c(cccc31)C1C=C(C)CN(C)[C@@H]1C2.Cc1ccc(C(=O)OC(C(=O)O)C(OC(=O)c2ccc(C)cc2)C(=O)O)cc1 (centres undefined)
GI50 [17]: 3.18 µM (inactive) | GI50 [18]: 2.63 µM (inactive) | GI50 [19]: 3.56 µM (inactive)

Cc1ccc2[nH]c3c(C)c4ccncc4c(C)c3c2c1
GI50 [17]: 0.933 µM (active) | GI50 [18]: 0.394 µM (active) | GI50 [19]: 0.927 µM (active)
